We go through 1 molecule from PMC4855798, “Cell-bound lipases from Burkholderia sp. ZYB002: gene sequence analysis, expression, enzymatic characterization, and 3D structural model” (BMC Biotechnology, 2016).

The subject of this assay is T1, LipC24.
T1 construct: mature LipC24 coding region (ORF 438 aa), His6-tag, E. coli Origami2 (DE3), co-expressed with foldase LipB lacking N-terminal 70 residues; purified by HisTrap and DEAE, single 45 kDa band; counterpart in B. cepacia J2315 is BCAM2764
The experiment in a line: spectrophotometric 4-nitrophenol release, non-linear regression. Type of assay: biochemical, Burkholderia sp. ZYB002. To be noted: 40 °C, 20 mmol/L Na2HPO4-NaH2PO4 buffer pH 7.5; 0.1-1.8 mmol/L substrate.

A word on the Km: it is the substrate concentration at which the rate is half of its maximum. In the case of `CCCCCCCCCCCCCC(=O)Oc1ccc([N+](=O)[O-])cc1` [4-nitrophenyl myristate], the Michaelis-Menten constant (Km) was 370 ± 70 µM.
